The values that follow are results of earlier work, collected in patent US20200121704A1, “METHODS FOR TREATING HYPERTENSION AND ARTERIAL STIFFNESS” (THE REGENTS OF THE UNIVERSITY OF COLORADO, A BODY CORPORATE, priority 2017, published 2020).

Data set [1] deals with ET-1. Particulars: animal models of hypercholesterolemia and cardiac hypertrophy; cited from earlier work.
The subject of data set [2] is endothelial cells. The note with it: cited from earlier work.
In data set [3] the test system is Klotho deficient mice. The note with it: cited from earlier work.
Data set [4] relates to old mice. Particulars: supplementation; cited from earlier work.

For `Oc1ccc(C=Cc2cc(O)cc(O)c2)cc1` [resveratrol], the “Circulating ET-1 levels” value in data set [1] is reported as “decreases circulating ET-1 levels”. Besides, in data set [2], the “Secretion of ET-1 by endothelial cells” value is listed as “suppressed”.
`O=C(Nc1ccccc1-c1cn2c(CN3CCNCC3)csc2n1)c1cnc2ccccc2n1` [SRT1720]: the Development of hypertension entry in data set [3] (Klotho deficient mice (a model of accelerated aging)) is “protects against the development of hypertension”. In addition, in data set [3] (klotho deficient mice), the “Development of arterial stiffness” value is on record as “prevented the development of arterial stiffness”.
`NC(=O)c1ccc[n+]([C@@H]2O[C@H](COP(=O)([O-])O)[C@@H](O)[C@H]2O)c1` [NMN, nicotinamide mononucleotide]: the Aortic stiffening result in data set [4] is “reverses aortic stiffening in old mice to youthful levels”.
